Like-named read-outs stand apart in the source and are kept apart here.
Key:
NCI-H929 cell lines = test: In vitro cytotoxicity, CellTiter-Glo (CTG) assay (Example B, Method B); format: cell-based; details: NCI-H929 cells, 48 h incubation, read-out: C50
Protocol: Cellular viability was monitored with the cell viability assay (Cell Titer-Glo®) on NCI-H929 cell lines. The CellTiter-Glo® (CTG) Luminescent Cell Viability Assay (from Promega) is a homogeneous method to determine the number of viable cells in culture based on quantitation of the ATP present, which signals the presence of metabolically active cells.
Concentration response of test compounds are performed with 10 mM stock solutions (DMSO), 11-points curve, in a 384-well compound plate. The assay plate is prepared by stamping 120 nL from compound dilution plate of all different concentrations (e.g. 10 mM to have final 30 μM assay test) into a cell culture microplate, using Echo acoustic liquid handling (Labcyte, Beckman). 40 μl of cell solution is added and cells are incubated with compounds for 48 h at 37° C., 5% CO2. CTG was added to the cells (according to the manufacturer instructions) and luminescence intensity was recorded using the Pherastar plate reader (BMG).
This assay provides in vitro cellular efficacy of compounds of Formula (I) tested, measuring the C50, defined as the concentration needed to reach 50% of the cellular viability.

[1] = molecular target: Cy5-labelled Mcl1 (amino acids 171-321) C286S protein (UniProtKB Q07820) (Homo sapiens (Human), UniProt Q07820, C286S); test: Inhibition of Mcl-1 by the fluorescence quenching assay (Example A, Method B); format: binding
Procedure, shortened: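 Eleven-point compound series incubated 2 h at room temperature with 1 nM Cy5-tagged protein and quencher-labelled PUMA peptide at 10, 20 or 400 nM in HEPES/NaCl/Tween 20, pH 7.4, 5% DMSO. IC50 for 50% fluorescence increase by 4-parameter fit, then Ki derived (complete cKi or estimated eKi).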

Sequence of Cy5-labelled Mcl1 (amino acids 171-321) C286S protein (Q07820 171-321 C286S): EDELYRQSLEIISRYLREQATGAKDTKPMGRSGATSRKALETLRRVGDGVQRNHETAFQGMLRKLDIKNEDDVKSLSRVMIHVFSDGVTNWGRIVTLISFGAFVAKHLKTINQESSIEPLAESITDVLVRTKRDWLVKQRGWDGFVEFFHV

Row | SMILES | IC50 (NCI-H929 cell lines; Homo sapiens, NCI-H929, 48 h) [nM] | Ki [1] [nM] | inhibition at 1 µM ([1]; @ 1 μM, read-out: Mcl-1 inhibition, % at a single concentration) [%] | Ki ([1]; Ki determined from IC50) [nM] | IC50 (NCI-H929 cell lines) [nM]
1 | CC(C)Oc1cc2c(cc1Cl)C[C@H](C[C@@H](C)COc1ccnc3c1[C@H](C)CCC3)[C@]21CC[C@](Nc2cccc(Cl)c2)(C(=O)O)CC1 [Example 819, (1r,2′S,4S)-5′-chloro-4-(3-chloroanilino)-2′-[(2R)-2-methyl-3-{[(5R)-5-methyl-5,6,7,8-tetrahydroquinolin-4-yl]oxy}propyl]-6′-[(propan-2-yl)oxy]-2′,3′-dihydrospiro[cyclohexane-1,1′-indene]-4-carboxylic acid] | 151 | 0.162 |  |  | 
2 | C[C@@H](COc1ccnc2c1[C@H](C)CCC2)C[C@H]1Cc2cc3c(cc2[C@]12CC[C@@](Nc1cccc(Cl)c1)(C(=O)O)CC2)OCC(C)(C)CO3 [Example 981, (1r,4S,8′S)-4-(3-chloroanilino)-3′,3′-dimethyl-8′-[(2R)-2-methyl-3-{[(5R)-5-methyl-5,6,7,8-tetrahydroquinolin-4-yl]oxy}propyl]-3′,4′,8′,9′-tetrahydro-2′H-spiro[cyclohexane-1,7′-indeno[5,6-b][1,4]dioxepine]-4-carboxylic acid] | 86 | 0.0238 |  |  | 
3 | CCN(CC)C(=O)OC(C)OC(=O)[C@]1(Nc2cccc(Cl)c2)CC[C@@]2(CC1)c1cc3c(cc1C[C@@H]2C[C@@H](C)COc1ccnc2c1[C@H](C)CCC2)OCO3 (stereo partly drawn) [Example 949, 1-[(diethylcarbamoyl)oxy]ethyl (1r,4S,6′S)-4-(3-chloroanilino)-6′-[(2R)-2-methyl-3-{[(5R)-5-methyl-5,6,7,8-tetrahydroquinolin-4-yl]oxy}propyl]-6′,7′-dihydro-2′H-spiro[cyclohexane-1,5′-indeno[5,6-d][1,3]dioxole]-4-carboxylate] | > 30000 |  | 13.6 |  | 
4 | Cc1ccc2c(c1)CN(C[C@@H](C)COc1ccnc3c1[C@H](C)CCC3)[C@]21CC[C@](Nc2ccc(F)c(Cl)c2)(C(=O)O)CC1 [Example 54, (1s,4S)-4-(3-chloro-4-fluoroanilino)-5′-methyl-2′-[(2R)-2-methyl-3-{[(5R)-5-methyl-5,6,7,8-tetrahydroquinolin-4-yl]oxy}propyl]-2′,3′-dihydrospiro[cyclohexane-1,1′-isoindole]-4-carboxylic acid] | 177 |  |  | 0.177 | 
5 | C[C@@H](COc1ccnc2c1[C@H](C)CCC2)C[C@H]1Cc2cc3c(cc2[C@]12CC[C@@](Nc1cccc(Cl)c1)(C(=O)OCC(F)(F)F)CC2)OCO3 [Example 932, 2,2,2-trifluoroethyl (1r,4S,6′S)-4-(3-chloroanilino)-6′-[(2R)-2-methyl-3-{[(5R)-5-methyl-5,6,7,8-tetrahydroquinolin-4-yl]oxy}propyl]-6′,7′-dihydro-2′H-spiro[cyclohexane-1,5′-indeno[5,6-d][1,3]dioxole]-4-carboxylate] | 13600 | 213 |  |  | 
6 | C[C@@H](COc1ccnc2c1[C@H](C)CCC2)C[C@H]1Cc2cccc(F)c2[C@]12CC[C@@](Nc1cccc(Cl)c1)(C(=O)O)CC2 [Example 763, (1r,2′S,4S)-4-(3-chloroanilino)-7′-fluoro-2′-[(2R)-2-methyl-3-{[(5R)-5-methyl-5,6,7,8-tetrahydroquinolin-4-yl]oxy}propyl]-2′,3′-dihydrospiro[cyclohexane-1,1′-indene]-4-carboxylic acid] | 118 | 0.0813 |  |  | 
7 | COCCOc1cc2c(cc1Cl)C[C@H](C[C@@H](C)COc1ccnc3c1[C@H](C)CCC3)[C@]21CC[C@](Nc2cccc(Cl)c2)(C(=O)O)CC1 [Example 822, (1r,2′S,4S)-5′-chloro-4-(3-chloroanilino)-6′-(2-methoxyethoxy)-2′-[(2R)-2-methyl-3-{[(5R)-5-methyl-5,6,7,8-tetrahydroquinolin-4-yl]oxy}propyl]-2′,3′-dihydrospiro[cyclohexane-1,1′-indene]-4-carboxylic acid] | 64.1 | 0.149 |  |  | 
8 | C[C@@H](COc1ccnc2c1[C@H](C)CCC2)C[C@H]1Cc2ccc(OCC3CC3)cc2[C@]12CC[C@@](Nc1cccc(Cl)c1)(C(=O)O)CC2 [Example 791, (1r,2′S,4S)-4-(3-chloroanilino)-6′-(cyclopropylmethoxy)-2′-[(2R)-2-methyl-3-{[(5R)-5-methyl-5,6,7,8-tetrahydroquinolin-4-yl]oxy}propyl]-2′,3′-dihydrospiro[cyclohexane-1,1′-indene]-4-carboxylic acid] | 192 | 0.124 |  |  | 
9 | C[C@@H](COc1ccnc2c1[C@H](C)CCC2)C[C@@H]1Cc2ccc(-c3ccsc3)cc2[C@]12CC[C@@](Nc1cccc(Cl)c1)(C(=O)O)CC2 [Example 879, (1r,2′R,4R)-4-(3-chloroanilino)-2′-[(2R)-2-methyl-3-{[(5R)-5-methyl-5,6,7,8-tetrahydroquinolin-4-yl]oxy}propyl]-6′-(thiophen-3-yl)-2′,3′-dihydrospiro[cyclohexane-1,1′-indene]-4-carboxylic acid] | 1360 | 4.06 |  |  | 
10 | CCC1COc2cc3c(cc2OC1)[C@]1(CC[C@@](Nc2cccc(Cl)c2)(C(=O)O)CC1)[C@@H](C[C@@H](C)COc1ccnc2c1[C@H](C)CCC2)C3 (single isomer, unassigned) [Example 988] |  | 0.0323 |  |  | 204
11 | CC(C)[C@@H]1CCOc2cc3c(cc2O1)C[C@H](C[C@@H](C)COc1ccnc2c1[C@H](C)CCC2)[C@]31CC[C@](Nc2cccc(Cl)c2)(C(=O)O)CC1 [Example 997, (1r,2′S,4S,8′S)-4-(3-chloroanilino)-8′-[(2R)-2-methyl-3-{[(5R)-5-methyl-5,6,7,8-tetrahydroquinolin-4-yl]oxy}propyl]-2′-(propan-2-yl)-3′,4′,8′,9′-tetrahydro-2′H-spiro[cyclohexane-1,7′-indeno[5,6-b][1,4]dioxepine]-4-carboxylic acid] | 965 | 4.15 |  |  | 
12 | CC(O)c1ccc2c(c1)[C@]1(CC[C@@](Nc3cccc(Cl)c3)(C(=O)O)CC1)[C@@H](C[C@@H](C)COc1ccnc3c1[C@H](C)CCC3)C2 (single isomer, unassigned) [Example 860] |  | 0.0188 |  |  | 93
13 | C[C@@H](COc1ccnc2c1[C@@H](C)CCC2)C[C@@H]1Cc2cc3c(cc2[C@]12CC[C@@](Nc1cccc(Cl)c1)(C(=O)O)CC2)OCO3 [Example 843, (1r,4R,6′R)-4-(3-chloroanilino)-6′-[(2R)-2-methyl-3-{[(5S)-5-methyl-5,6,7,8-tetrahydroquinolin-4-yl]oxy}propyl]-6′,7′-dihydro-2′H-spiro[cyclohexane-1,5′-indeno[5,6-d][1,3]dioxole]-4-carboxylic acid] | 1380 | 3.58 |  |  | 
14 | Cc1ccc2c(c1)C[C@H](C[C@@H](C)COc1ccnc3c1[C@H](C)CCC3)[C@]21CC[C@](Nc2cccc(Cl)c2)(C(=O)O)CC1 [Example 853, (1r,2′S,4S)-4-(3-chloroanilino)-5′-methyl-2′-[(2R)-2-methyl-3-{[(5R)-5-methyl-5,6,7,8-tetrahydroquinolin-4-yl]oxy}propyl]-2′,3′-dihydrospiro[cyclohexane-1,1′-indene]-4-carboxylic acid] | 137 | 0.0917 |  |  | 
15 | C[C@@H](COc1ccnc2c1[C@H](C)CCC2)C[C@H]1Cc2cc3c(cc2[C@]12CC[C@@](Nc1cccc(Cl)c1)(C(=O)O)CC2)OCC(F)(F)CO3 [Example 996, (1r,4S,8′S)-4-(3-chloroanilino)-3′,3′-difluoro-8′-[(2R)-2-methyl-3-{[(5R)-5-methyl-5,6,7,8-tetrahydroquinolin-4-yl]oxy}propyl]-3′,4′,8′,9′-tetrahydro-2′H-spiro[cyclohexane-1,7′-indeno[5,6-b][1,4]dioxepine]-4-carboxylic acid] | 84.5 | 0.028 |  |  | 
16 | C[C@@H](COc1ccnc2c1[C@H](C)CCC2)C[C@H]1Cc2cc3c(cc2[C@]12CC[C@@](Nc1cccc(Cl)c1)(C(=O)OCOC(=O)C(C)(C)C)CC2)OCO3 [Example 942, [(2,2-dimethylpropanoyl)oxy]methyl (1r,4S,6′S)-4-(3-chloroanilino)-6′-[(2R)-2-methyl-3-{[(5R)-5-methyl-5,6,7,8-tetrahydroquinolin-4-yl]oxy}propyl]-6′,7′-dihydro-2′H-spiro[cyclohexane-1,5′-indeno[5,6-d][1,3]dioxole]-4-carboxylate] | 222 | 15.5 |  |  | 
17 | CC(OC(=O)OC1CCCC1)OC(=O)[C@]1(Nc2cccc(Cl)c2)CC[C@@]2(CC1)c1cc3c(cc1C[C@@H]2C[C@@H](C)COc1ccnc2c1[C@H](C)CCC2)OCO3 (stereo partly drawn) [Example 945, 1-{[(cyclopentyloxy)carbonyl]oxy}ethyl (1r,4S,6′S)-4-(3-chloroanilino)-6′-[(2R)-2-methyl-3-{[(5R)-5-methyl-5,6,7,8-tetrahydroquinolin-4-yl]oxy}propyl]-6′,7′-dihydro-2′H-spiro[cyclohexane-1,5′-indeno[5,6-d][1,3]dioxole]-4-carboxylate] | 24700 | 162 |  |  | 

From US20240150293A1, “SPIROCYCLOHEXANE DERIVATIVES, PHARMACEUTICAL COMPOSITIONS CONTAINING THEM AND THEIR USES AS ANTI-APOPTOTIC INHIBITORS” (LES LABORATOIRES SERVIER, priority 2021, published 2024)
